Experimental data from patent US11279690B2, “Inhibitors of glutaminyl cyclase” (VIVORIAN THERAPEUTICS N.V, priority 2017, dated 2022).

Columns and labels:
[1] = target: hQC (Homo sapiens, UniProt Q16769); assay: QC inhibitor assay, determination of Ki at pH 6.0; assay type: biochemical; settings: read-out: Ki hQC pH6.0
Experimental: All measurements were performed with a BioAssay Reader HTS-7000Plus for microplates (Perkin Elmer) at 30° C. QC activity was evaluated fluorometrically using H-Gln-βNA. The samples consisted of 0.2 mM fluorogenic substrate, 0.25 U pyroglutamyl aminopeptidase (Unizyme, Horsholm, Denmark) in 0.2 M Tris/HCl, pH 8.0 containing 20 mM EDTA and an appropriately diluted aliquot of QC in a final volume of […]. Excitation/emission wavelengths were 320/410 nm. The assay reactions were initiated by addition of glutaminyl cyclase. QC activity was determined from a standard curve of β-naphthylamine under assay conditions. One unit is defined as the amount of QC catalyzing the formation of 1 μmol pGlu-βNA from H-Gln-βNA per minute under the described conditions.
In a second fluorometric assay, QC was activity determined using H-Gln-AMC as substrate. Reactions were carried out at 30° C. utilizing the NOVOStar reader for microplates (BMG labtechnologies). The samples consisted of varying concentrations of the fluorogenic substrate, 0.1 U pyroglutamyl aminopeptidase (Qiagen) in 0.05 M Tris/HCl, pH 8.0 containing 5 mM EDTA and an appropriately diluted aliquot of QC in a final volume of 250 μl. Excitation/emission wavelengths were 380/460 nm. The assay reactions were initiated by addition of glutaminyl cyclase. QC activity was determined from a standard curve of 7-amino-4-methylcoumarin under assay conditions. The kinetic data were evaluated using GraFit software.
This novel assay was used to determine the kinetic parameters for most of the QC substrates. […] Samples consisted of the respective QC substrate, 0.3 mM NADH, 14 mM α-Ketoglutaric acid and 30 U/ml glutamate dehydrogenase in a final volume of 250 μl. Reactions were started by addition of QC and persued by monitoring of the decrease in absorbance at 340 nm for 8-15 min.
The initial velocities were evaluated and the enzymatic activity was determined from a standard curve of ammonia under assay conditions. All samples were measured at 30° C., using either the […]luor Plus or the Sunrise (both from TECAN) reader for microplates. Kinetic data was evaluated using GraFit software.
(§1) For inhibitor testing, the sample composition was the same as described above, except of the putative inhibitory compound added. For a rapid test of QC-inhibition, samples contained 4 mM of the respective inhibitor and a substrate concentration at 1 KM. For detailed investigations of the inhibition and determination of Ki-values, influence of the inhibitor on the auxiliary enzymes was investigated first. […] The inhibitory constant was evaluated by fitting the set of progress curves to the general equation for competitive inhibition using GraFit software. The inhibitor assay was performed at two different pH levels, pH 6.0 and pH 8.0: The respective pH value in the assay solution was adjusted using conventional methods.

[2] = target: hQPCTL (Homo sapiens, UniProt Q9NXS2); assay: Inhibitor assay, determination of Ki against the QC isoenzyme at pH 6; assay type: biochemical; settings: read-out: Ki hQPCTL pH6
Experimental: as §1

[3] = Pharmacokinetic parameters in mice, plasma, brain and CSF after oral administration; assay type: in vivo, mice (strain CD-1); settings: mice (CD-1), 30 mg/kg orally in 0.8% Methocel
Experimental: Three mice (strain CD-1) were administered orally 30 mg/kg of each test compound dissolved in 0.8% Methocel. Samples were taken at the time points 10 min, 0.5, 1, 2, 4 and 8 hr after test compound administration for plasma and brain collection.
The mice were anesthetized with Isoflurane. Approximate […] of each blood sample were collected via cardiac puncture for terminal bleeding into K2EDTA tubes. Blood samples were put on ice and centrifuged at 2000 g for 5 min to obtain plasma sample within 15 minutes. CSF collection: The animals were euthanized with pure CO2 inhalation. A mid line incision was made on the neck. The muscle under the skin was cut to expose the cisterna magna. The cisterna magna was penetrated with the sharp end of a capillary and CSF was collected via capillarity.
After CSF collection, a perfusion with 7x total mouse blood volume (approximate 15 ml) of ice-cold PBS (pH 7.4) was conducted via cardiac puncture before brain collection. A mid-line incision was made in the animal scalp. The brain was removed and rinsed with cold saline. Brain was placed into a screw-top tube and weighed. Brain samples were homogenized for 2 min with 3 volumes (v/w) of PBS (pH 7.4) and then analyzed with LC-MS/MS. The brain concentration was corrected with a dilution factor of 4 as following: Brain concentration=brain homogenate conc.×4, assuming 1 g wet brain tissue equals to 1 ml.
Plasma, brain and CSF samples were stored at approximately −80° C. until analysis.
For plasma samples: An aliquot of 20 μl sample was added with 200 μ IS (Diclofenac, 200 ng/mL) in ACN, the mixture was vortexed for 2 min and centrifuged at 12.000 rpm for 5 min. 1 μl supernatant was injected for LC-MS/MS analysis.
For diluted plasma samples: An aliquot of 4 μl sample was added with 16 μl blank plasma, mixed well, added with 200 μl IS (Diclofenac, 200 ng/ml) in ACN.
For Brain samples: Brain tissue was homogenized for 2 min with 3 volumes (v/w) of PBS. An aliquot of 20 μl sample was added with 200 μl IS (Diclofenac, 200 ng/ml) in ACN, the mixture was vortexed for 2 min and centrifuged at 12000 rpm for 5 min. 1 μl supernatant was injected for LC-MS/MS analysis.
For CSF samples: The CSF sample was added with corresponding 20 fold volume of IS (Diclofenac, 200 ng/ml) in ACN, the mixture was vortexed for 2 min. 3 μl supernatant was injected for LC-MS/MS analysis.

Chain of hQPCTL (Q9NXS2 whole entry): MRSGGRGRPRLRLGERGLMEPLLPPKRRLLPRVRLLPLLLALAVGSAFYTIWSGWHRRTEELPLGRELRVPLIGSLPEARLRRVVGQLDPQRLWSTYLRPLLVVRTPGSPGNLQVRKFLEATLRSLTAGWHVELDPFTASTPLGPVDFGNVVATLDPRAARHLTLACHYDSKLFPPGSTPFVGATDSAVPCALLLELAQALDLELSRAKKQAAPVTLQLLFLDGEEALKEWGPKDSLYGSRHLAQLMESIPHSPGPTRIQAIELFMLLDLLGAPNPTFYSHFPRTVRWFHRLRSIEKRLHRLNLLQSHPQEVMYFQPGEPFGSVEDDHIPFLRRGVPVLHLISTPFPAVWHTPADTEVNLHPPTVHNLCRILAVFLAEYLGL
Chain of hQC (Q16769 29-361): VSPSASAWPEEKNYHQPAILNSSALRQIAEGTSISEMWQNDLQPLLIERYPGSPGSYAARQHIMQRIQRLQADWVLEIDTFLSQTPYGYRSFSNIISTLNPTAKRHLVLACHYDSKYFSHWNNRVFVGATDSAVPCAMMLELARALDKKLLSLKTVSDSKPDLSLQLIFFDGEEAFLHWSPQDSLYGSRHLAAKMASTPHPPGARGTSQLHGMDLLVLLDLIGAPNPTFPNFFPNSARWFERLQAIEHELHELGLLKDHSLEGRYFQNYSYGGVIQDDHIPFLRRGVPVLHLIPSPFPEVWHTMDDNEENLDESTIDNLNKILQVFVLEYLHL

melting point	Ki [1]	Ki [2]	blood-brain-barrier crossing behaviour [3]	AUC-values in the brain [3]	Compound
203 to 208 °C	–	–	–	–	CC(F)(F)COc1ccc([C@@H]2CC(=O)N2c2ccc3[nH]cnc3c2)c(F)c1 [Example 12, (S)-4-(4-(2,2-difluoropropoxy)-2-fluorophenyl)-1-(1H-benzo[d]imidazol-5-yl)azetidin-2-one]
165 to 170 °C	3.8 nM	1.3 nM	good	good	CC(F)(F)COc1ccc([C@H]2CC(=O)N2c2ccc3[nH]cnc3c2)c(F)c1 [Example 11, (R)-4-(4-(2,2-difluoropropoxy)-2-fluorophenyl)-1-(1H-benzo[d]imidazol-5-yl)azetidin-2-one]
150 to 155 °C	3.3 nM	0.86 nM	good	good	O=C1C[C@H](c2ccc(OCCC(F)F)cc2F)N1c1ccc2[nH]cnc2c1 [Example 5, (R)-4-(4-(3,3-difluoropropoxy)-2-fluorophenyl)-1-(1H-benzo[d]imidazol-5-yl)azetidin-2-one]
165 to 170 °C	2.4 nM	1.1 nM	good	good	O=C1C[C@H](c2ccc(OCCC(F)F)c(F)c2F)N1c1ccc2[nH]cnc2c1 [Example 7, (R)-4-(4-(3,3-difluoropropoxy)-2,3-difluorophenyl)-1-(1H-benzo[d]imidazol-5-yl)azetidin-2-one]
137 to 142 °C	–	–	–	–	O=C1C[C@@H](c2ccc(OCCC(F)F)cc2F)N1c1ccc2[nH]cnc2c1 [Example 6, (S)-4-(4-(3,3-difluoropropoxy)-2-fluorophenyl)-1-(1H-benzo[d]imidazol-5-yl)azetidin-2-one]
–	–	–	good	good	O=C1C[C@H](c2c(F)cc(OCCC(F)F)cc2F)N1c1ccc2[nH]cnc2c1 [Example 9, (R)-4-(4-(3,3-difluoropropoxy)-2,6-difluorophenyl)-1-(1H-benzo[d]imidazol-5-yl)azetidin-2-one]
148 to 153 °C	–	–	–	–	O=C1C[C@@H](c2ccc(OCCC(F)F)c(F)c2F)N1c1ccc2[nH]cnc2c1 [Example 8, (S)-4-(4-(3,3-difluoropropoxy)-2,3-difluorophenyl)-1-(1H-benzo[d]imidazol-5-yl)azetidin-2-one]

More lines, now with the values behind:

Compound	melting point	Ki [1]	Ki [2]	blood-brain-barrier crossing behaviour [3]	AUC-values in the brain [3]
O=C1CC(c2ccccc2)N1c1ccc2[nH]cnc2c1 (racemic) [Example 1, 1-(1H-benzo[d]imidazol-5-yl)-4-phenylazetidin-2-one]	–	170 nM	33.4 nM	–	–
CC(F)(F)COc1ccc([C@H]2CC(=O)N2c2ccc3[nH]cnc3c2)c(F)c1F [Example 13, (R)-4-(4-(2,2-difluoropropoxy)-2,3-difluorophenyl)-1-(1H-benzo[d]imidazol-5-yl)azetidin-2-one]	173 to 177 °C	2.3 nM	2 nM	good	good
COc1cc(F)c(C2CC(=O)N2c2ccc3nc[nH]c3c2)c(F)c1 (racemic) [Example 4, 1-(1H-benzo[d]imidazol-5-yl)-4-(2,6-difluoro-4-methoxyphenyl)azetidin-2-one]	–	8.6 nM	2.5 nM	good	good
CC(F)(F)COc1cc(F)c([C@H]2CC(=O)N2c2ccc3[nH]cnc3c2)c(F)c1 [Example 15, (R)-4-(4-(2,2-difluoropropoxy)-2,6-difluorophenyl)-1-(1H-benzo[d]imidazol-5-yl)azetidin-2-one]	158 to 162 °C	3.6 nM	0.3 nM	good	good
O=C1C[C@H](c2ccccc2)N1c1ccc2nc[nH]c2c1 [Example 2, (R)-1-(1H-benzo[d]imidazol-6-yl)-4-phenylazetidin-2-one]	–	20.8 nM	6.9 nM	–	–
CC(F)(F)COc1ccc([C@@H]2CC(=O)N2c2ccc3[nH]cnc3c2)c(F)c1F [Example 14, (S)-4-(4-(2,2-difluoropropoxy)-2,3-difluorophenyl)-1-(1H-benzo[d]imidazol-5-yl)azetidin-2-one]	170 to 174 °C	–	–	–	–
CC(F)(F)COc1cc(F)c([C@@H]2CC(=O)N2c2ccc3[nH]cnc3c2)c(F)c1 [Example 16, (S)-4-(4-(2,2-difluoropropoxy)-2,6-difluorophenyl)-1-(1H-benzo[d]imidazol-5-yl)azetidin-2-one]	163 to 166 °C	–	–	–	–
